From patent EP4650002A1 (Ludwig-Maximilians-Universität, priority 2024, dated 2025)

Target: T1, human TLX (Homo sapiens, UniProt Q9Y466)
T1 construct: expressed in transfected cells; host or cells: HEK293T
Assay: Gal4 hybrid reporter gene assay (TLX modulation)
Type: cell-based
Parameters: key to relative reporter activity: fraction of DMSO control (DMSO = 1)
Details: for EC50: Gal4-TLX hybrid reporter in HEK293T cells, 16 h incubation; for relative reporter activity: DMSO control = 1
Description: In the Tables, the TLX relative reporter activity is expressed as EC50 (in µM) for each listed compound. "EC50" refers to a measure of the concentration of a compound which induces a biological response halfway between the baseline and maximum after a specified exposure time. […] The EC50 is measured via a hybrid reporter gene assay, employing the transfection of a reporter (firefly luciferase with Gal4 response element), a control gene (Renilla luciferase), a transcriptional activator (Gal4-VP16) and a hybrid receptor consisting of the TLX ligand binding domain (LBD) and the Gal4 DNA binding domain (DBD).
Hybrid reporter gene assays. […] After 24 h, medium was changed to Opti-MEM without supplements and cells were transiently transfected using Lipofectamine LTX reagent (Invitrogen, Carlsbad, CA, USA) according to the manufacturer's protocol. Five hours after transfection, cells were incubated with the test compounds in Opti-MEM supplemented with penicillin (100 U/mL), streptomycin (100 µg/mL) and 0.1% DMSO for 16 h before luciferase activity was measured using the Dual-Glo Luciferase Assay System (Promega) according to the manufacturer's protocol on a Tecan Spark luminometer (Tecan Deutschland GmbH, Crailsheim, Germany). Firefly luminescence was divided by Renilla luminescence and multiplied by 1000 resulting in relative light units (RLU) to normalize for transfection efficiency and cell growth. Fold activation was obtained by dividing the mean RLU of test compound by the mean RLU of the untreated control. All samples were tested in at least three biologically independent experiments in duplicates. For dose-response curve fitting and calculation of EC50 values, the equation "[Agonist] vs. response -- Variable slope (four parameters)" was used in GraphPad Prism (version 7.00, GraphPad Software, La Jolla, CA, USA).

[1] = minimal remaining or maximum reporter activity after treatment, in brackets below the EC50, <1 agonism, >1 inverse agonism

T1 sequence (Q9Y466 155-383 limits assumed): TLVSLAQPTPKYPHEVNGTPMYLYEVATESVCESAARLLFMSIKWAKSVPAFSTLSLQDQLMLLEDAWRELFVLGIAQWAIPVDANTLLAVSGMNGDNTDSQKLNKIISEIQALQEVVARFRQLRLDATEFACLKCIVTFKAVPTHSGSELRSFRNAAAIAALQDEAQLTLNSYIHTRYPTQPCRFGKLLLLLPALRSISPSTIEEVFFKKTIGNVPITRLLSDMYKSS

SMILES | EC50 [µM] | relative reporter activity [1] | also measured
Nc1cc(-c2cccc3[nH]ccc23)cc(C(F)(F)F)c1 [compound 99, 3-(1H-Indol-4-yl)-5-(trifluoromethyl)aniline] | 3 ± 0.2 |  | 
Cn1cc(-c2cc(N)cc(C(F)(F)F)c2)c2cccnc21 [compound 52, 3-(1-methyl-1H-pyrrolo[2,3-b]pyridin-3-yl)-5-(trifluoromethyl)aniline] | 3.5 ± 0.8 |  | 
CN(C)c1ccc(-c2cc(N)cc(C(F)(F)F)c2)cc1 [compound 95, N4',N4'-dimethyl-5-(trifluoromethyl)-[1,1'-biphenyl]-3,4'-diamine] |  |  | relative reporter activity (at 20 µM): (0.41±0.11 at 20 µM)
CC(=O)c1cc(-c2cc(N)cc(C(F)(F)F)c2)ccn1 [compound 87, 1-(4-(3-amino-5-(trifluoromethyl)phenyl)pyridin-2-yl)ethan-1-one] | 4.6 ± 2.1 | 0.30±0.05 | 
Cc1cc(-c2cc(N)cc(C(F)(F)F)c2)n[nH]1 [compound 43, 3-(5-methyl-1H-pyrazol-3-yl)-5-(trifluoromethyl)aniline] |  |  | relative reporter activity (at 100 µM): (0.29±0.05 at 100 µM)
Cc1cc(-c2cc(NC(=O)C3CCC3)cc(C(F)(F)F)c2)ccn1 [compound 82, N-(3-(2-methylpyridin-4-yl)-5-(trifluoromethyl)phenyl)cyclobutanecarboxamide] | 0.6 ± 0.2 | 0.17±0.09 | 
Cc1cc(-c2cc(NC(=O)c3cc(C)[nH]n3)cc(C(F)(F)F)c2)ccn1 [compound 86, 5-methyl-N-(3-(2-methylpyridin-4-yl)-5-(trifluoromethyl)phenyl)-1H-pyrazole-3-carboxamide] | 3.3 ± 0.7 | 0.32±0.03 | 
Nc1cc(-c2ccc3occc3c2)cc(C(F)(F)F)c1 [compound 91, 3-(benzofuran-5-yl)-5-(trifluoromethyl)aniline] |  |  | relative reporter activity (at 10 µM): (0.84±0.06 at 10 µM)
Cc1ncc(-c2cc(N)cc(C(F)(F)F)c2)cn1 [compound 68, 3-(2-methylpyrimidin-5-yl)-5-(trifluoromethyl)aniline] | 15 ± 6 | 0.34±0.09 | 
CC(=O)c1ccc(-c2ccnc(C)c2)cc1N [compound 112, 1-(2-amino-4-(2-methylpyridin-4-yl)phenyl)ethan-1-one] | 18 ± 10 | 0.58±0.09 | 
Cc1cnc(-c2cc(N)cc(C(F)(F)F)c2)s1 [compound 54, 3-(5-methylthiazol-2-yl)-5-(trifluoromethyl)aniline] |  |  | relative reporter activity (at 30 µM): (0.46±0.21 at 30 µM)
CC(=O)c1cc(-c2cc(NC(=O)c3ccnc4ccccc34)cc(C(F)(F)F)c2)cs1 [compound 61, N-(3-(5-acetylthiophen-3-yl)-5-(trifluoromethyl)phenyl)quinoline-4-carboxamide] | 1.1 ± 0.3 | 0.17±0.08 | 
Cc1cc(-c2cc(N)cc(C#N)c2)ccn1 [compound 109, 3-amino-5-(2-methylpyridin-4-yl)benzonitrile] | 5.9 ± 2.2 | 0.40±0.11 | 
Cc1cc(-c2cc(NC(=O)C3CCCNC3)cc(C(F)(F)F)c2)ccn1 (stereo not drawn) [compound 85, N-(3-(2-methylpyridin-4-yl)-5-(trifluoromethyl)phenyl)piperidine-3-carboxamide] |  |  | relative reporter activity (at 20 µM): (0.15±0.01 at 20 µM)
Cc1cn(-c2cc(NC(=O)c3ccc(Cl)cc3)cc(C(F)(F)F)c2)cn1 [compound 15, 4-chloro-N-(3-(4-methyl-1H-imidazol-1-yl)-5-(trifluoromethyl)phenyl)benzamide] | 2.3 ± 0.3 | 0.41±0.05 | 
Cc1cccc(-c2cc(N)cc(C(F)(F)F)c2)c1 [compound 72, 3'-methyl-5-(trifluoromethyl)-[1,1'-biphenyl]-3-amine] |  |  | relative reporter activity (at 30 µM): inactive at 30 µM
CCOc1cc(C(=O)Nc2cc(-n3cnc(C)c3)cc(C(F)(F)F)c2)c2ccccc2n1 [compound 8, 2-ethoxy-N-(3-(4-methyl-1H-imidazol-1-yl)-5-(trifluoromethyl)phenyl)quinoline-4-carboxamide] | 1.1 ± 0.3 | 0.57±0.04 | 
Nc1cc(-c2cscn2)cc(C(F)(F)F)c1 [compound 63, 3-(thiazol-4-yl)-5-(trifluoromethyl)aniline] | 11 ± 3 | 0.58±0.10 | 
Cc1nn(C)c(C)c1-c1cc(N)cc(C(F)(F)F)c1 [compound 41, 3-(trifluoromethyl)-5-(1,3,5-trimethyl-1H-pyrazol-4-yl)aniline] | 4.2 ± 0.9 | 0.34±0.09 | 

SMILES | EC50 [µM] | relative reporter activity [1] | also measured
Cc1cc(-c2cc(NC(=O)c3cc4ccccc4s3)cc(C(F)(F)F)c2)ccn1 [compound 81, N-(3-(2-methylpyridin-4-yl)-5-(trifluoromethyl)phenyl)benzo[b]thiophene-2-carboxamide] | 1.2 ± 0.2 | 0.39±0.05 | 
COc1ccc(C(=O)Nc2cc(-n3cnc(C)c3)cc(C(F)(F)F)c2)cc1 [compound 17, 4-methoxy-N-(3-(4-methyl-1H-imidazol-1-yl)-5-(trifluoromethyl)phenyl)benzamide] | 5.2 ± 0.4 | 0.42±0.03 | 
Cc1cc(-c2cc(N)ccc2OC(F)(F)F)ccn1 [compound 110, 3-(2-methylpyridin-4-yl)-4-(trifluoromethoxy)aniline] | 16 ± 10 | 0.34±0.09 | 
Cc1cn(-c2cc(NC(=O)c3cccc4ccccc34)cc(C(F)(F)F)c2)cn1 [compound 6, N-(3-(4-methyl-1H-imidazol-1-yl)-5-(trifluoromethyl)phenyl)-1-naphthamide] |  |  | relative reporter activity (at 3 µM): (0.79±0.03 at 3 µM)
Nc1cc(-c2ccc3sccc3c2)cc(C(F)(F)F)c1 [compound 92, 3-(benzo[b]thiophen-5-yl)-5-(trifluoromethyl)aniline] |  |  | relative reporter activity (at 10 µM): inactive at 10 µM
Cn1cc(-c2cc(N)cc(C(F)(F)F)c2)c2ccccc21 [compound 51, 3-(1-Methyl-1H-indol-3-yl)-5-(trifluoromethyl)aniline] | 9.1 ± 0.7 |  | 
Cc1cnn(-c2cc(N)cc(C(F)(F)F)c2)c1 [compound 37, 3-(4-methyl-1H-pyrazol-1-yl)-5-(trifluoromethyl)aniline] |  |  | relative reporter activity (at 100 µM): (0.48±0.09 at 100 µM)
Cc1cc(C(=O)Nc2cc(N)cc(C(F)(F)F)c2)nn1C [compound 46, N-(3-amino-5-(trifluoromethyl)phenyl)-1,5-dimethyl-1H-pyrazole-3-carboxamide] | 11 ± 5 | 0.20±0.02 | 
Cc1cc(-c2cccc(N)c2)ccn1 [compound 104, 3-(2-methylpyridin-4-yl)aniline] |  |  | relative reporter activity (at 50 µM): (0.73±0.06 at 50 µM)
Cc1cn(-c2cc(NC(=O)c3ccnc(Cl)c3)cc(C(F)(F)F)c2)cn1 [compound 12, 2-chloro-N-(3-(4-methyl-1H-imidazol-1-yl)-5-(trifluoromethyl)phenyl)-isonicotinamide] |  |  | relative reporter activity (at 10 µM): (0.71±0.05 at 10 µM)
Cc1cc(-c2cc(NC(=O)Cc3ccccc3)cc(C(F)(F)F)c2)ccn1 [compound 76, N-(3-(2-methylpyridin-4-yl)-5-(trifluoromethyl)phenyl)-2-phenylacetamide] | 0.3 ± 0.07 | 0.12±0.06 | 
Cc1cc(-c2cc(NC(=O)C(O)(c3ccccc3)C3CCCC3)cc(C(F)(F)F)c2)ccn1 (stereo not drawn) [compound 84, 2-cyclopentyl-2-hydroxy-N-(3-(2-methylpyridin-4-yl)-5-(trifluoromethyl)phenyl)-2-phenylacetamide] |  |  | relative reporter activity (at 3 µM): (0.26±0.05 at 3 µM)
Cc1cc(N)cc(-c2ccnc(C)c2)c1 [compound 106, 3-methyl-5-(2-methylpyridin-4-yl)aniline] |  |  | relative reporter activity (at 30 µM): (0.44±0.09 at 30 µM)
Cc1cc(-c2cc(N)cc(OC(F)(F)F)c2)ccn1 [compound 113, 3-(2-methylpyridin-4-yl)-5-(trifluoromethoxy)aniline] | 13.6 ± 0.6 |  | 
Cc1cc(-c2cc(N)cc(C(F)(F)F)c2)cc(C)n1 [compound 88, 3-(2,6-dimethylpyridin-4-yl)-5-(trifluoromethyl)aniline] | 1.6 ± 0.8 |  | 
Nc1cc(-n2cnc3ccccc32)cc(C(F)(F)F)c1 [compound 35, 3-(1H-benzo[d]imidazol-1-yl)-5-(trifluoromethyl)aniline] | 2.4 ± 0.9 |  | 
Cc1cc(-c2cc(N)ccc2C(F)(F)F)ccn1 [compound 107, 3-(2-methylpyridin-4-yl)-4-(trifluoromethyl)aniline] |  |  | relative reporter activity (at 50 µM): (0.39±0.04 at 50 µM)
O=C(Nc1cc(-n2cnc3ccccc32)cc(C(F)(F)F)c1)c1ccnc2ccccc12 [compound 36, N-(3-(1H-benzo[d]imidazol-1-yl)-5-(trifluoromethyl)phenyl)quinoline-4-carboxamide] |  |  | relative reporter activity (at 10 µM): (0.24±0.04 at 10 µM
Cc1ccc(-c2cc(N)cc(C(F)(F)F)c2)s1 [compound 55, 3-(5-methylthiophen-2-yl)-5-(trifluoromethyl)aniline] |  |  | relative reporter activity (at 30 µM): 2.2±0.6
